# Results reported in paper PMC12587574, “Mass balance, pharmacokinetics, metabolism, and excretion of radiolabeled acoziborole, a potential novel treatment for human African trypanosomiasis, following single microtracer oral dose to humans” (Antimicrobial Agents and Chemotherapy, 2025).
# Several values for one entry are separate records, joined by “and”; a condition that tells them apart may be missing. Identical values can stand only once.
# What was measured:
# [1] = Urinary excretion / renal clearance of acoziborole and SCYX-3109 by LC-MS/MS; type: in vivo; details: male, human, urine and plasma; CumAe0–240h/AUC0–240h; mean ± SD; 960 mg single oral dose of acoziborole; read-out: renal clearance CLr0–240h (converted)
# Method: Urine samples were collected before IP administration (single urine void) and then during intervals of 0–6, 6–12, 12–24, 24–48, 48–72, 72–96, 96–120, 120–168, 168–192, 192–216, and 216–240 h post-dose and for the additional 48-h collection period starting on Day 15 post-dose, that is, 336–384 h. Samples were acidified with citric acid to avoid acoziborole degradation and were refrigerated until the end of the block collection periods. The total weight and volume of urine were then recorded. At the end of each collection period, two aliquots of acidified urine (20 mL) were taken from the sample and stored in polypropylene tubes at −20°C until further analysis for total radioactivity. Two aliquots of 1 mL acidified urine were collected into tubes containing bovine serum albumin in aqueous solution (to avoid non-specific adsorption of acoziborole) and NaCl for acoziborole and SCYX-3109 assays. […]
# SGS Belgium (Wavre, Belgium) performed the analysis to determine acoziborole and SCYX-3109 concentrations, using validated bioanalytical assays with liquid chromatography with tandem mass spectrometry (LC-MS/MS) with a Supelco Ascentis Express C8, 2.7 µm, 50 × 2.1 mm I.D. separation column. In plasma, the lower limit of quantification (LLOQ) was 25 ng/mL for acoziborole and 10 ng/mL for SCYX-3109. […]
# [2] = parameters: method as in PMID 21738803; details: oral, mice; cited from earlier work
# [3] = Excretion and mass balance of total radioactivity in urine and feces (AMS); type: in vivo, human
# Method: Urine samples were collected before IP administration (single urine void) and then during intervals of 0–6, 6–12, 12–24, 24–48, 48–72, 72–96, 96–120, 120–168, 168–192, 192–216, and 216–240 h post-dose and for the additional 48-h collection period starting on Day 15 post-dose, that is, 336–384 h. Samples were acidified with citric acid to avoid acoziborole degradation and were refrigerated until the end of the block collection periods. The total weight and volume of urine were then recorded. At the end of each collection period, two aliquots of acidified urine (20 mL) were taken from the sample and stored in polypropylene tubes at −20°C until further analysis for total radioactivity. Two aliquots of 1 mL acidified urine were collected into tubes containing bovine serum albumin in aqueous solution (to avoid non-specific adsorption of acoziborole) and NaCl for acoziborole and SCYX-3109 assays. Urine samples for metabolite profiling were pooled for each participant according to the time intervals reported above, from 0 to 240 h.
# Feces were collected before dosing and at block intervals of 0–6, 6–12, 12–24, 24–48, 48–72, 72–96, 96–120, 120–168, and 168–240 h post-dose and for five additional 48-h home collection periods starting on Days 15, 29, 59, 89, and 119. At the end of each collection period, a portion of the sample (50 g) was retained and stored at approximately −20°C until analyzed. The remaining fecal homogenate was combined with that collected at the end of each time interval and stored at approximately −20°C.
# (§1) TNO (Leiden, the Netherlands) performed the analysis of total radioactivity and the metabolite profiling and identification. All blood, plasma, urine, and fecal homogenate samples were analyzed for total radioactivity by accelerator mass spectrometry (AMS). AMS analysis was performed on a 1 MV multi-element AMS, model 4110 Bo, high voltage engineering (software: AMS 155), using Australian National University (ANU) sucrose-8542 (C12H22O11) with a certified ^14C/^12C isotope ratio ([10]) as the system suitability test sample and [^14C]-paracetamol as an AMS quality check sample.
# (§2) For each (diluted) sample, 5 µL blood, 5 µL plasma, 15 µL urine, or 30 mg fecal homogenate prepared in 1% CMC solution (1% CMC solution:feces ratio of 4:1) were transferred to tin foil cups. The samples were dried under a stream of nitrogen and subsequently placed in the elemental analyzer (EA, Vario Micro, Elementar, Germany), which acts as an autosampler and combustion device for the AMS. Single samples of blood, plasma, and urine were analyzed. Fecal homogenates were analyzed in triplicate, and the averaged value was reported. Total radioactivity in plasma and blood was expressed as ng equivalents (Eq) of acoziborole/mL. The LLOQ was 47.3 ngEq/mL in plasma (1.51 mBq/mL), 165.4 ngEq/mL in blood (5.28 mBq/mL), 33.8 ngEq/mL in urine (1.08 mBq/mL), and 87.1 ngEq/mL in feces (2.78 mBq/mL).
# (§3) Blood-to-plasma ratio was calculated based on Cmax and AUC values. For total radioactivity excreted in urine, feces, and both combined, the following parameters were calculated: total amount of total radioactivity excreted over the time interval between t1 and t2 (Aet1−t2), Aet1−t2 expressed as a percentage of the radioactive dose administered (%Aet1−t2), CumAe, and Cum%Ae. For CumAe calculation, the recovery of total radioactivity during WinNonlin time intervals in which urine and feces were not collected was estimated using the area under the excretion rate-time curve from the end of the preceding collection interval to the start of the subsequent collection interval.
# [4] = parameters: method as in PMID 21738803; details: liver sub-cellular fractions from rodents, dogs, cynomolgus monkeys, and humans; cited from earlier work
# [5] = Total radioactivity in blood and plasma by accelerator mass spectrometry, phase I mass balance study; type: in vivo, human; details: 960 mg single oral dose
# Method: Venous blood samples were collected via an indwelling cannula or by venepuncture. A 12 mL sample was taken into heparinized glass tube and chilled on ice immediately before IP administration and 3 mL samples were taken at 1, 4, 9, 12, 24, 48, 72, 96, 120, 144, 168, and 240 h and on Days 15, 31, 59, 89, and 119 after IP administration. The first 0.5 mL of blood withdrawn via cannula was discarded. One aliquot of heparinized whole blood (1 mL) per time point was stored at or below −20°C for total radioactivity analysis. The remaining blood was centrifuged, and the harvested plasma was stored at approximately −20°C for bioanalysis or transferred (exactly 1 mL) into polypropylene tubes pre-filled with 5 µL formic acid. One plasma sample (0.5 mL) was used for metabolite profiling while another (0.5 mL) was used for parent drug and SCYX-3109 metabolite analysis. The remaining plasma was used for total radioactivity analysis.
# as §1, §2, §3
# [6] = 960 mg single oral dose, N = 6, mean and SD
# [7] = 960 mg single oral dose, N = 6, mean and SD, listed as [^14C]-acoziborole
# [8] = t set to 1440 h (60 days), N = 6, mean and SD
# [9] = t set to 1440 h (Day 60), N = 6, mean and SD, listed as [^14C]-acoziborole
# [10] = N = 6, mean ± SD, listed as [^14C]-acoziborole
smiles,measurement,setting,value
CC1(C)OB(O)c2cc(NC(=O)c3ccc(F)cc3C(F)(F)F)ccc21 [acoziborole],CL renal,[1],0.0333 mL/min
same,absolute bioavailability,[2],55%
same,"Cum%Ae0-240h dose, total radioactivity recovered (urine and faeces)",[3]; [6],58.6 ± 8.6%
same,"Cum%Ae0-384h dose, total radioactivity recovered (urine and faeces)",[3]; [6],70.8 ± 8.1%
same,"CumAe0-240h, total radioactivity in faeces",[3]; [6],488.8 ± 84.8 mgEq
same,"CumAe0-240h, total radioactivity in urine",[3]; [6],74.0 ± 18.5 mgEq
same,"CumAe0-240h, total radioactivity recovered (urine and faeces)",[3]; [6],562.9 ± 82.8 mgEq
same,"CumAe0-384h, total radioactivity in faeces",[3]; [6],574.9 ± 81.4 mgEq
same,"CumAe0-384h, total radioactivity in urine",[3]; [6],104.6 ± 28.9 mgEq
same,"CumAe0-384h, total radioactivity recovered (urine and faeces)",[3]; [6],679.6 ± 77.5 mgEq
same,"Cum%Ae0-240h dose, total radioactivity in faeces",[3]; [7],50.9 ± 8.8%
same,"Cum%Ae0-240h dose, total radioactivity in urine",[3]; [7],7.7 ± 1.9%
same,"Cum%Ae0-384h dose, total radioactivity in faeces",[3]; [7],59.9 ± 8.5%
same,"Cum%Ae0-384h dose, total radioactivity in urine",[3]; [7],10.9 ± 3.0%
same,increment in excretion of total radioactivity,"[3]; between Days 59 and 61 (up to 1,440 h)",< 1%
same,"absorbed fraction, estimated","[3]; fasting condition, assuming gastrointestinal transit time of approximately 3 days",≥ 70 % of the dose
same,geometric mean recovery of total radioactivity in urine and feces,"[3]; over the total 1,392 h, CV% 5.5%",87.2%
same,"CumAe0-t, total radioactivity in faeces",[3]; [8],712.1 ± 56.4 mgEq
same,"CumAe0-t, total radioactivity recovered (urine and faeces)",[3]; [8],838.4 ± 48.9 mgEq
same,"Cum%Ae0-t dose, total radioactivity in faeces",[3]; [9],74.2% and 74.2 ± 5.9%
same,"Cum%Ae0-t dose, total radioactivity recovered (urine and faeces)",[3]; [9],87.3% and 87.3 ± 5.1%
same,"CumAe0-t, total radioactivity in urine","[3]; urine collection limited to 384 h, N = 6, mean and SD",104.6 ± 28.9 mgEq
same,"Cum%Ae0-t dose, total radioactivity in urine","[3]; urine collection limited to 384 h, N = 6, mean and SD, listed as [^14C]-acoziborole",10.9% and 10.9 ± 3.0%
same,metabolic stability,[4],metabolically stable
same,"mean whole blood to plasma total radioactivity ratios (Cmax and AUC0–240h), interpretation",[5],no affinity for blood cells
same,"median tmax, total radioactivity in plasma",[5]; N = 6,48 h
same,"AUC0–240h, total radioactivity, whole blood","[5]; N = 6, mean ± SD","2,250.737 ± 182.816 µg-eq*h/mL"
same,"AUC0–t, total radioactivity, plasma","[5]; N = 6, mean ± SD","5,403.286 ± 1,561.755 µg-eq*h/mL"
same,"AUC0–t, total radioactivity, whole blood","[5]; N = 6, mean ± SD","3,556.202 ± 3,236.208 µg-eq*h/mL"
same,"AUC0–∞, total radioactivity, plasma","[5]; N = 6, mean ± SD","5,785.324 ± 1,105.726 µg-eq*h/mL"
same,"AUC0–∞, total radioactivity, whole blood","[5]; N = 6, mean ± SD","5,382.336 ± 2,473.408 µg-eq*h/mL"
same,"tmax, total radioactivity, plasma","[5]; N = 6, mean ± SD",56.0 ± 12.4 h
same,"tmax, total radioactivity, whole blood","[5]; N = 6, mean ± SD",68.1 ± 9.9 h
same,"AUC0–240h, total radioactivity, plasma",[5]; [10],"2,371.786 ± 255.572 µg-eq*h/mL"
same,"t1/2, total radioactivity, plasma",[5]; [10],278.3 h and 278 h and 278.3 ± 47.4 h
same,"t1/2, total radioactivity, whole blood",[5]; [10],239.2 h and 239.2 ± 65.7 h
same,"Cmax, total radioactivity, whole blood","[5]; healthy males, N = 6, mean ± SD",12.052 ± 1.129 µg-eq/mL
same,"Cmax, total radioactivity, plasma","[5]; healthy males, N = 6, mean ± SD, listed as [^14C]-acoziborole",13.13 µg-eq/mL and 13.130 ± 1.776 µg-eq/mL
same,"mean whole blood to plasma total radioactivity ratios (Cmax and AUC0–240h), interpretation",[5]; listed as [^14C]-acoziborole,equivalent distribution between blood cells and plasma
